Data: patent publication US11130752B2, “Aminopyrimidine compound” (Cardurion Pharmaceuticals, LLC, priority 2018, dated 2021)
Structures can show the parent of a compound that is named as a salt.

Key:
human CaMKIIδ = target: T1, human CaMKIIδ (Homo sapiens, UniProt Q13557); assay: In vitro CaMKII inhibitory activity (binding assay, TR-FRET); details: activity ranks
T1 construct: Full-length, glutathione-S-transferase(GST)-tagged, human CaMKIIδ was purchased from Carna Biosciences; purchased Carna Biosciences (CaMKIIδ); Wako Pure Chemical Industries (calmodulin) 02-111
Procedure, shortened: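 TR-FRET displacement of a BODIPY probe (300 nM) from 0.5 nM full-length GST-tagged human CaMKIIδ, with Tb-anti-GST, calmodulin and 1 mM CaCl2 in pH 7.6 HEPES/MgCl2 buffer. Read after 1 hr at room temperature over an eight-point 4-fold series. IC50 by logistic fit, with 3 μM parent compound as the 100% control.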

[1] = tested on: phospholamban (Thr17, PLN) phosphorylation, cardiac CaMKII; assay: In vivo cardiac CaMKII inhibition (oral administration), P-PLN Western blot; details: male CD (SD) IGS rat left ventricle, 30 mg/kg p.o., 4 hr after administration, in comparison with vehicle-treated group, read-out: Reduction rate of P-PLN
Procedure: Evaluation of In Vivo Cardiac CaMKII Inhibition (Oral Administration)
To evaluate potency of test compounds to inhibit cardiac CaMKII kinase in vivo, phosphorylation levels of CaMKII-specific sites of phospholamban (Thr17, PLN) were measured in the heart of rats administered orally with test compounds.
Test compounds were suspended in 0.5% [w/v]methylcellulose/water solution and administered (30 mg/kg) to male CD (SD) IGS rat (6-8 weeks old, n=4) by the p.o. route (5 mL/kg). At 4 hours after the administration, rats were sacrificed and the hearts were harvested. After washing the isolated hearts with ice-cold saline, connective tissues were removed on ice, and the isolated left ventricle were frozen into liquid nitrogen gas and stored at −80° C.
The left ventricle samples were homogenized in RIPA-buffer containing phosphatase inhibitors and protease inhibitors. Samples were analyzed by Western blotting using anti-P-PLN (Thr17, Santa Cruz Biotechnology, sc-17024-R) antibody. The band intensities were quantified using an imaging system and were normalized relative to the vehicle-treated group.

[2] = Table 4, GST-tagged human CaMKIIδ
[3] = Table 1, GST-tagged human CaMKIIδ

Row | Structure (SMILES) | IC50 (human CaMKIIδ; [2]) [nM] | inhibition in vivo at 30 mg/kg [1] [%] | IC50 (human CaMKIIδ; [3]) [nM]
1 | COCCCOc1nn([C@H]2CC[C@H](N3C[C@@H](C)O[C@@H](C)C3)CC2)cc1Nc1ncc(-c2ccc(Cl)c(O[C@@H](C)Cn3cnnn3)c2)cn1 [Example 489, 5-(3-(((S)-1-(1H-tetrazol-1-yl)propan-2-yl)oxy)-4-chlorophenyl)-N-(1-((1r,4r)-4-((2S,6R)-2,6-dimethylmorpholino)cyclohexyl)-3-(3-methoxypropoxy)-1H-pyrazol-4-yl)pyrimidin-2-amine] | < 10 | > 30 | –
2 | CCOCCCOc1nn([C@H]2CC[C@H](N3[C@@H]4CC[C@H]3COC4)CC2)cc1Nc1ncc(-c2ccc(C#N)c(O[C@@H](C)Cn3cnnn3)c2)cn1 [Example 36, 2-(((S)-1-(1H-tetrazol-1-yl)propan-2-yl)oxy)-4-(2-((1-((1r,4r)-4-((1R,5S)-3-oxa-8-azabicyclo[3.2.1]octan-8-yl)cyclohexyl)-3-(3-ethoxypropoxy)-1H-pyrazol-4-yl)amino)pyrimidin-5-yl)benzonitrile] | – | > 30 | < 10
3 | CCOCCCOc1nn([C@H]2CC[C@H](N3CCOCC3)CC2)cc1Nc1ncc(-c2ccc(C#N)c(O[C@@H](C)Cn3cnnn3)c2)cn1 [Example 33, 2-(((S)-1-(1H-tetrazol-1-yl)propan-2-yl)oxy)-4-(2-((3-(3-ethoxypropoxy)-1-((1r,4r)-4-morpholinocyclohexyl)-1H-pyrazol-4-yl)amino)pyrimidin-5-yl)benzonitrile] | – | > 30 | < 10
4 | C[C@@H](Cn1cnnn1)Oc1cc(-c2cnc(Nc3cn([C@H]4CC[C@H](N5CCOCC5)CC4)nc3OCCCn3cncn3)nc2)ccc1Cl [Example 508, N-(3-(3-(1H-1,2,4-triazol-1-yl)propoxy)-1-((1r,4r)-4-morpholinocyclohexyl)-1H-pyrazol-4-yl)-5-(3-(((S)-1-(1H-tetrazol-1-yl)propan-2-yl)oxy)-4-chlorophenyl)pyrimidin-2-amine] | < 10 | – | –
5 | COCCOCCOc1nn([C@H]2CC[C@H](N3CCOCC3)CC2)cc1Nc1ncc(-c2ccc(Cl)c(O[C@@H](C)Cn3cnnn3)c2)cn1 [Example 49, 5-(3-(((S)-1-(1H-tetrazol-1-yl)propan-2-yl)oxy)-4-chlorophenyl)-N-(3-(2-(2-methoxyethoxy)ethoxy)-1-((1r,4r)-4-morpholinocyclohexyl)-1H-pyrazol-4-yl)pyrimidin-2-amine hydrochloride] | – | – | < 10
6 | C[C@@H](Cn1cnnn1)Oc1cc(-c2cnc(Nc3cn([C@H]4CC[C@H](N5CCOCC5)CC4)nc3OCCCOCC(F)F)nc2)ccc1C#N [Example 46, 2-(((S)-1-(1H-tetrazol-1-yl)propan-2-yl)oxy)-4-(2-((3-(3-(2,2-difluoroethoxy)propoxy)-1-((1r,4r)-4-morpholinocyclohexyl)-1H-pyrazol-4-yl)amino)pyrimidin-5-yl)benzonitrile] | – | – | < 10
7 | COCCCOc1nn([C@H]2CC[C@H](N3[C@@H]4CC[C@H]3COC4)CC2)cc1Nc1ncc(-c2ccc(C#N)c(O[C@@H](C)Cn3cnnn3)c2)cn1 [Example 30, 2-(((S)-1-(1H-tetrazol-1-yl)propan-2-yl)oxy)-4-(2-((1-((1r,4r)-4-((1R,5S)-3-oxa-8-azabicyclo[3.2.1]octan-8-yl)cyclohexyl)-3-(3-methoxypropoxy)-1H-pyrazol-4-yl)amino)pyrimidin-5-yl)benzonitrile] | – | > 30 | < 10
8 | COCCOCCOc1nn([C@H]2CC[C@H](N3CCOCC3)CC2)cc1Nc1ncc(-c2ccc(C#N)c(O[C@@H](C)Cn3cnnn3)c2)cn1 [Example 48, 2-(((S)-1-(1H-tetrazol-1-yl)propan-2-yl)oxy)-4-(2-((3-(2-(2-methoxyethoxy)ethoxy)-1-((1r,4r)-4-morpholinocyclohexyl)-1H-pyrazol-4-yl)amino)pyrimidin-5-yl)benzonitrile hydrochloride] | – | – | < 10
9 | COCCOCCCOc1nn([C@H]2CC[C@H](N3C[C@@H](C)O[C@@H](C)C3)CC2)cc1Nc1ncc(-c2ccc(Cl)c(O[C@@H](C)Cn3cnnn3)c2)cn1 [Example 487, 5-(3-(((S)-1-(1H-tetrazol-1-yl)propan-2-yl)oxy)-4-chlorophenyl)-N-(1-((1r,4r)-4-((2S,6R)-2,6-dimethylmorpholino)cyclohexyl)-3-(3-(2-methoxyethoxy)propoxy)-1H-pyrazol-4-yl)pyrimidin-2-amine] | < 10 | > 30 | –
10 | C[C@@H](Cn1cnnn1)Oc1cc(-c2cnc(Nc3cn([C@H]4CC[C@H](N5[C@@H]6CC[C@H]5COC6)CC4)nc3OCCS(C)(=O)=O)nc2)ccc1Cl [Example 86, 5-(3-(((S)-1-(1H-tetrazol-1-yl)propan-2-yl)oxy)-4-chlorophenyl)-N-(1-((1r,4r)-4-((1R,5S)-3-oxa-8-azabicyclo[3.2.1]octan-8-yl)cyclohexyl)-3-(2-(methylsulfonyl)ethoxy)-1H-pyrazol-4-yl)pyrimidin-2-amine] | – | – | < 10
11 | Cc1noc(C)c1COc1nn([C@H]2CC[C@H](N3CCOCC3)CC2)cc1Nc1ncc(-c2ccc(Cl)c(O[C@@H](C)Cn3cnnn3)c2)cn1 [Example 506, 5-(3-(((S)-1-(1H-tetrazol-1-yl)propan-2-yl)oxy)-4-chlorophenyl)-N-(3-((3,5-dimethylisoxazol-4-yl)methoxy)-1-((1r,4r)-4-morpholinocyclohexyl)-1H-pyrazol-4-yl)pyrimidin-2-amine] | < 10 | – | –
12 | C[C@@H]1CN([C@H]2CC[C@H](n3cc(Nc4ncc(-c5ccc(Cl)c(O[C@@H](C)Cn6cnnn6)c5)cn4)c(OCCC(C)(C)O)n3)CC2)C[C@H](C)O1 [Example 486, 4-((4-((5-(3-(((S)-1-(1H-tetrazol-1-yl)propan-2-yl)oxy)-4-chlorophenyl)pyrimidin-2-yl)amino)-1-((1r,4r)-4-((2S,6R)-2,6-dimethylmorpholino)cyclohexyl)-1H-pyrazol-3-yl)oxy)-2-methylbutan-2-ol] | < 10 | > 30 | –
13 | C[C@@H](Cn1cnnn1)Oc1cc(-c2cnc(Nc3cn([C@H]4CC[C@H](N5[C@@H]6CC[C@H]5COC6)CC4)nc3OCCO)nc2)ccc1Cl [Example 243, 2-((4-((5-(3-(((S)-1-(1H-tetrazol-1-yl)propan-2-yl)oxy)-4-chlorophenyl)pyrimidin-2-yl)amino)-1-((1r,4r)-4-((1R,5S)-3-oxa-8-azabicyclo[3.2.1]octan-8-yl)cyclohexyl)-1H-pyrazol-3-yl)oxy)ethan-1-ol] | – | – | < 10
14 | C[C@@H](Cn1cnnn1)Oc1cc(-c2cnc(Nc3cn(C4CCC(N5CCOCC5)CC4)nc3OCc3ccnn3C)nc2)ccc1Cl (stereo partly drawn) [Example 505, 5-(3-(((S)-1-(1H-tetrazol-1-yl)propan-2-yl)oxy)-4-chlorophenyl)-N-(3-((1-methyl-1H-pyrazol-5-yl)methoxy)-1-((1r,4r)-4-morpholinocyclohexyl)-1H-pyrazol-4-yl)pyrimidin-2-amine] | < 10 | – | –
15 | C[C@@H](Cn1cnnn1)Oc1cc(-c2cnc(Nc3cn([C@H]4CC[C@H](N5CCOCC5)CC4)nc3OCCC(C)(C)O)nc2)ccc1C#N [Example 495, 2-(((S)-1-(1H-tetrazol-1-yl)propan-2-yl)oxy)-4-(2-((3-(3-hydroxy-3-methylbutoxy)-1-((1r,4r)-4-morpholinocyclohexyl)-1H-pyrazol-4-yl)amino)pyrimidin-5-yl)benzonitrile] | < 10 | – | –
16 | C[C@@H](Cn1cnnn1)Oc1cc(-c2cnc(Nc3cn([C@H]4CC[C@H](N5CCOCC5)CC4)nc3OCCC(C)(C)O)nc2)ccc1Cl [Example 500, 4-((4-((5-(3-(((S)-1-(1H-tetrazol-1-yl)propan-2-yl)oxy)-4-chlorophenyl)pyrimidin-2-yl)amino)-1-((1r,4r)-4-morpholinocyclohexyl)-1H-pyrazol-3-yl)oxy)-2-methylbutan-2-ol] | < 10 | – | –
17 | CC(C)OCCOc1nn([C@H]2CC[C@H](N3CCOCC3)CC2)cc1Nc1ncc(-c2ccc(C#N)c(O[C@@H](C)Cn3cncn3)c2)cn1 [Example 16, 2-(((S)-1-(1H-1,2,4-triazol-1-yl)propan-2-yl)oxy)-4-(2-((3-(2-isopropoxyethoxy)-1-((1r,4r)-4-morpholinocyclohexyl)-1H-pyrazol-4-yl)amino)pyrimidin-5-yl)benzonitrile] | – | – | < 10
18 | C[C@@H](Cn1cnnn1)Oc1cc(-c2cnc(Nc3cn([C@H]4CC[C@H](N5CCOCC5)CC4)nc3OCc3nccs3)nc2)ccc1Cl [Example 504, 5-(3-(((S)-1-(1H-tetrazol-1-yl)propan-2-yl)oxy)-4-chlorophenyl)-N-(1-((1r,4r)-4-morpholinocyclohexyl)-3-(thiazol-2-ylmethoxy)-1H-pyrazol-4-yl)pyrimidin-2-amine] | < 10 | – | –
19 | CCOCCOc1nn([C@H]2CC[C@H](N3[C@@H]4CC[C@H]3COC4)CC2)cc1Nc1ncc(-c2ccc(C#N)c(O[C@@H](C)Cn3cnnn3)c2)cn1 [Example 12, 2-(((S)-1-(1H-tetrazol-1-yl)propan-2-yl)oxy)-4-(2-((1-((1r,4r)-4-((1R,5S)-3-oxa-8-azabicyclo[3.2.1]octan-8-yl)cyclohexyl)-3-(2-ethoxyethoxy)-1H-pyrazol-4-yl)amino)pyrimidin-5-yl)benzonitrile] | – | > 30 | < 10
